# Like-named read-outs stand apart in the source and are kept apart here.
# Tested on: HepG2 cells
# Experiment: Mitotoxicity, XTT viability in glucose vs galactose medium
# Conditions: Homo sapiens, HepG2, 24 h
# Method: (A) Hepatotoxicity provoked by compound 4 was assessed after 72 h incubation of HepG2 cells in low glucose medium (5 mM) in the presence of compound 4 (0.25–100 μM). (B) Mitochondrial toxicity was determined after 24 h incubation of HepG2 cells in either high glucose medium (25 mM) or galactose medium (10 mM) in the presence of compound 4 (2.5–150 μM). Cell viabilities were recorded in triplicates in three independent experiments and expressed as percentage of vehicle control ± SD and IC50 values were determined by GraphPad Prism software using following equation: Y = Bottom + (Top–Bottom)/(1 + 10ˆ((LogIC50-X)^∗HillSlope)), where IC50 is the concentration of compound 4 that inhibits cell viability half way between Bottom and Top plateaus, X is compound 4 concentration and HillSlope describes the steepness of the family of curves. […] (C) Concentration-dependent effect on ROS level. HepG2 cells were treated with compound 4 (0.25–100 μM) for 72 h, and then the intracellular level of total ROS in relative fluorescence units (RFU) was detected. The data are presented as the mean ± SD for at least three independent experiments and each experiment was carried out in triplicate. Final concentration of DMSO in samples was 1%. […] Single asterisks (^∗) indicate a significant difference (P < 0.05) compared to 1% DMSO control (one-way ANOVA with Dunnett’s post-test).
# HepG2 cells (ATCC®, United Kingdom) were grown in complete Minimal Essential Medium (EMEM) (5.5 mM glucose) medium, supplemented with 10% (v/v) fetal calf serum, 200 μg/mL of streptomycin, 200 U/mL of penicillin G and 4 mM glutamine. They were cultured under a humidified atmosphere containing 5% CO2 at 37°C.
# The cytotoxicity of the tested compounds was assessed with use of XTT cell proliferation kit II (Roche Diagnostics GmbH, Mannheim, Germany) according to the manufacturer’s instructions. Briefly HepG2 cells were seeded in a 96-well plate at a density of 22,000 cells per well. After 24 h, the tested neurosteroids in a concentration range from 0.5 to 200 μM were added to the culture media and incubated for 72 h before the XTT dye was added. Mitochondrial toxicity was assessed in HepG2 cells using glucose and galactose conditioned media and XTT assay as a read out for cell viability. In brief, cells were seeded onto 96 well, clear bottom tissue culture plates at a density of 22,000 cells/well and left overnight to attach. Six hours prior to the neurosteroids treatment the media was replaced with 100 μL DMEM media containing either glucose (25 mM glucose; 1 mM pyruvate; 2 mM glutamine, 10% FBS) or galactose (10 mM galactose, 1 mM pyruvate, 6 mM glutamine, 10% FBS). After that, the tested neurosteroids in a concentration range from 0.5 to 200 μM were added in the fresh appropriate assay medium (glucose or galactose) and incubated for 24 h before the XTT dye was added. The XTT absorbance was recorded at 495 nm after 1 h incubation with the dye. Compounds were dissolved in DMSO to produce the stock solutions at the concentration of 10 mM, with exception of PAG, 1, 6 (5 mM), and 11 (2.5 mM). Results were expressed as percentages of change in viability compared to appropriate DMSO control. IC50 values were determined by GraphPad Prism version 5.00 for Windows (GraphPad Software, La Jolla, CA, United States). All experiments were done in triplicates in three independent experiments to check the reproducibility.
smiles,measurement,setting,value
"C[C@@]12CCC[C@H]1[C@@H]1CC[C@@H]3C[C@H](NC(=O)[C@@H](N)CC(=O)O)CC[C@]3(C)[C@H]1CC2 [Compound 6, (S)-3-amino-4-(((3R,5R,8S,9S,10S,13S,14S)-10,13-dimethylhexadecahydro-1H-cyclopenta[a]phenanthren-3-yl)amino)-4-oxobutanoic acid]",IC50,"read-out: Mitotoxicity IC50, 10 mM galactose",> 200 µM
same,IC50,"read-out: Mitotoxicity IC50, 25 mM glucose",> 200 µM
